Results on 19 compounds are retold here after US20260028354A1, “TETRAHYDRONAPHTHALENE DERIVATIVES AS ESTROGEN RECEPTOR DEGRADERS” (REGENT OF THE UNIVERSITY OF MICHIGAN, priority 2022, published 2026).

Structures can show the parent of a compound that is named as a salt. Where two headings read alike, the source gives them in different places.

One assay addresses ER in MCF-7 cells (Homo sapiens (Human), UniProt P03372). Put plainly: In-cell Western (ICW) ER degradation assay in MCF-7 cells. The assay is classed as cell-based. As to conditions: for DC50: MCF-7, ER degradation, read-out: MCF7 DC50. The text has this: (§1) In-cell Western (ICW) assays in MCF-7 and T47D cell lines.
(§2) Day 3: After 16 hrs of compounds treatment, cells were fixed by 4% PFA and permeabilized with elution buffer (0.1% Triton X-100 in 1% PBS Solution). Subsequently, cells were blocked with Intercept (PBS) Blocking Buffer (Li-COR, Odyssey Blocking Buffer), and were stained with ER (1:500, Cell signaling) primary antibody for overnight at cold room.
(§3) Day 4: Remove the buffer, add IRDye 800CW Goat anti-Rabbit IgG Secondary Antibody (1:2000) and CellTag 700 Stain (1:500) in Intercept (PBS) Blocking Buffer. Finally, cell plate is placed in incubator to dry. Image and signal were captured on Odyssey® DLx Imaging System.

For a further assay, the target named is ER in T47D cells (Homo sapiens (Human), UniProt P03372). Put plainly: In-cell Western (ICW) ER degradation assay in T47D cells. The assay is classed as cell-based. The following applies: for DC50: ER degradation.
Sequence of ER in T47D cells (P03372 whole entry): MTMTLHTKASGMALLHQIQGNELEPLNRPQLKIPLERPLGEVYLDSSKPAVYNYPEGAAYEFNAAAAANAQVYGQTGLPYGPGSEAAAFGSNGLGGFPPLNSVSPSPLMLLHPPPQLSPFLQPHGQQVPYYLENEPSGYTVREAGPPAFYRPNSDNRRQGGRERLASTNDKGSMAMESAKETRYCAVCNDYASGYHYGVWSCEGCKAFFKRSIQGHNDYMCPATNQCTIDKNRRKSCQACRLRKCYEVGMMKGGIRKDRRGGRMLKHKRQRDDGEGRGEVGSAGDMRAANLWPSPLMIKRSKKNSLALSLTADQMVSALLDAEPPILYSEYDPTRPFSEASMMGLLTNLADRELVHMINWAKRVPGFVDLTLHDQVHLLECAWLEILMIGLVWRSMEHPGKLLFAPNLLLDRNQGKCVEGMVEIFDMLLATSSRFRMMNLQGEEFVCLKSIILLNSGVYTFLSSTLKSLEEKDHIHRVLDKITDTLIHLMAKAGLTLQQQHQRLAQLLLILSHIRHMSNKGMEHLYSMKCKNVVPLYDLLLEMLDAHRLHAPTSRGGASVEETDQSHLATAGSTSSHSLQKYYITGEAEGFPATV
Source text: as §1, §2, §3

Setting [1] is: MCF7, MCF-7, maximal ER degradation, 16 hrs treatment, read-out: MCF7 Dmax.
[2] abbreviates: maximal ER degradation, 16 hrs treatment, read-out: T47D Dmax.
The mark [3] stands for this setting: read-out: T47D Dmax, T47D, maximal ER degradation, 16 hrs treatment.
Setting [4] is: MCF7, read-out: MCF7 Dmax, MCF-7, maximal ER degradation, 16 hrs treatment.

Sequence of ER in MCF-7 cells (P03372 whole entry): as above

As to `O=C1CC[C@H](N2Cc3c(ccc4c3OC[C@H]3CN(CC5CC6(CCN(c7ccc([C@H]8c9ccc(O)cc9CC[C@H]8c8ccccc8)cc7F)CC6)C5)CCN43)C2=O)C(=O)N1` (single isomer, unassigned) [Compound A147], the Dmax at ER in MCF-7 cells (setting [1]) and at ER in T47D cells (setting [2]) was > 75% in each case. Moreover, the values for the DC50 on ER in MCF-7 cells (16 hrs treatment) and at ER in T47D cells (16 hrs treatment) were < 1 nM and 1 to 10 nM, respectively.
`COc1cc(N2CCC(CN3CCC(c4ccc(N[C@@H]5CCC(=O)NC5=O)cc4)CC3)CC2)ccc1[C@@H]1c2ccc(O)cc2CC[C@@H]1c1ccccc1` (single isomer, unassigned) [Compound A87]: the Dmax on ER in MCF-7 cells (setting [1]) and at ER in T47D cells (setting [2]) was 25 to 50% in each case. Further, the DC50 on ER in MCF-7 cells (16 hrs treatment) and on ER in T47D cells (16 hrs treatment) was < 1 nM each time.
For the compound `O=C1CC[C@H](NC(=O)c2ccc3c(n2)OC[C@H]2CN(CC4CC5(CCN(c6ccc([C@@H]7c8ccc(O)cc8CC[C@@H]7c7ccccc7)cn6)CC5)C4)CCN32)C(=O)N1` (single isomer, unassigned) [Compound A115], the DC50 (commonly the midpoint of the concentration-degradation curve) on ER in T47D cells (16 hrs treatment) is 1 to 10 nM. Moreover, on ER in T47D cells (setting [2]), the Dmax (as a rule, the greatest extent of degradation seen) was > 75%.
`COc1cc(N2CCC3(CC2)CC(CN2CCC(c4ccc(N[C@@H]5CCC(=O)NC5=O)cc4)CC2)C3)c(F)cc1[C@H]1c2ccc(O)cc2CC[C@H]1c1ccccc1` (single isomer, unassigned) [Compound A46]: the greatest degradation seen (Dmax) on ER in MCF-7 cells (setting [1]) and at ER in T47D cells (setting [2]) was 25 to 50% each time. Moreover, the DC50 at ER in MCF-7 cells (16 hrs treatment) and at ER in T47D cells (16 hrs treatment) was 10 to 100 nM in each case.
For the compound `COc1cc(N2CCC3(CC2)CC(CN2CCC(c4ccc(N[C@@H]5CCC(=O)NC5=O)cc4)CC2)C3)ccc1[C@@H]1c2ccc(O)cc2CC[C@@H]1c1ccccc1` (single isomer, unassigned) [Compound A110], the Dmax on ER in MCF-7 cells (setting [1]) and at ER in T47D cells (setting [2]) was 50 to 75% each time. Also, the DC50 on ER in MCF-7 cells (16 hrs treatment) and at ER in T47D cells (16 hrs treatment) was < 1 nM each time.
With `COc1cc(N2CCC3(CC2)CC(CN2CCC(c4ccc(N[C@H]5CCC(=O)NC5=O)cc4F)CC2)C3)ccc1[C@@H]1c2ccc(O)cc2CC[C@@H]1c1ccccc1` (single isomer, unassigned) [Compound A105], the Dmax on ER in MCF-7 cells (setting [1]) and on ER in T47D cells (setting [2]) was 50 to 75% in each case. The DC50 at ER in MCF-7 cells (16 hrs treatment) is < 1 nM; on ER in T47D cells (16 hrs treatment) it was 1 to 10 nM.
`COc1cc(N2CCC(CN3CCC(c4ccc(N[C@@H]5CCC(=O)NC5=O)cc4F)CC3)CC2)ccc1[C@H]1c2ccc(O)cc2CC[C@H]1c1ccccc1` (stereo in doubt) [Compound A84, (R)-3-((3-fluoro-4-(1-((1-(4-((1R,2R)-6-hydroxy-2-phenyl-1,2,3,4-tetrahydronaphthalen-1-yl)-3-methoxyphenyl)piperidin-4-yl)methyl)piperidin-4-yl)-phenyl)amino)piperidine-2,6-dione formate]: the Dmax was < 25% at ER in MCF-7 cells (setting [1]) and 25 to 50% at ER in T47D cells (setting [2]). The figures for the DC50 at ER in MCF-7 cells (16 hrs treatment) and on ER in T47D cells (16 hrs treatment) were < 1 nM and 10 to 100 nM, respectively.
Compound `COc1cc([C@H]2c3ccc(O)cc3CC[C@H]2c2ccccc2)c(F)cc1N1CCC2(CC1)CC(CN1CCN3c4ccc5c(c4OC[C@H]3C1)CN([C@H]1CCC(=O)NC1=O)C5=O)C2` (single isomer, unassigned) [Compound A102] displayed a DC50 at ER in T47D cells (16 hrs treatment) of 1 to 10 nM. For the same compound, the Dmax on ER in T47D cells (setting [3]) is > 75%.
`COc1cc([C@@H]2c3ccc(O)cc3CC[C@@H]2c2ccccc2)c(F)cc1N1CCC2(CC1)CC(CN1CCN3c4ccc5c(c4OC[C@H]3C1)CN([C@H]1CCC(=O)NC1=O)C5=O)C2` (single isomer, unassigned) [Compound A103]: on ER in T47D cells (16 hrs treatment), the DC50 is 10 to 100 nM. On ER in T47D cells (setting [3]), the Dmax fell in the range of 50 to 75%.
`O=C1CC[C@H](NC(=O)c2ccc3c(n2)OC[C@H]2CN(CC4CC5(CCN(c6ccc([C@H]7c8ccc(O)cc8CC[C@H]7c7ccccc7)cn6)CC5)C4)CCN32)C(=O)N1` (single isomer, unassigned) [Compound A114]: the DC50 on ER in T47D cells (16 hrs treatment) was > 100 nM. Also, at ER in T47D cells (setting [2]), the Dmax is < 25%.
As to `COc1cc(N2CCC(CN3CCC4(CC3)COc3cc5c(cc34)CN([C@H]3CCC(=O)NC3=O)C5=O)CC2)c(F)cc1[C@@H]1c2ccc(O)cc2CC[C@@H]1c1ccccc1` [Compound A122, (S)-3-(1′-((1-(2-fluoro-4-((1S,2S)-6-hydroxy-2-phenyl-1,2,3,4-tetrahydronaphthalen-1-yl)-5-methoxyphenyl)piperidin-4-yl)methyl)-7-oxo-5,7-dihydro-2H,6H-spiro[furo[2,3-f]isoindole-3,4′-piperidin]-6-yl)piperidine-2,6-dione], the Dmax at ER in MCF-7 cells (setting [4]) and at ER in T47D cells (setting [3]) was 50 to 75% in each case. The DC50 on ER in MCF-7 cells (16 hrs treatment) and at ER in T47D cells (16 hrs treatment) was < 1 nM each time.
On to `COc1cc(N2CCC(CN3CCC(c4ccc(N[C@H]5CCC(=O)NC5=O)cc4)CC3)CC2)ccc1[C@@H]1c2ccc(O)cc2CC[C@@H]1c1ccccc1` (single isomer, unassigned) [Compound A86], for which the Dmax on ER in MCF-7 cells (setting [1]) was < 25%; on ER in T47D cells (setting [2]), 25 to 50%. The DC50 at ER in MCF-7 cells (16 hrs treatment) lay within 1 to 10 nM; at ER in T47D cells (16 hrs treatment), 10 to 100 nM.
`O=C1CC[C@H](N2Cc3c(ccc4c3OC[C@H]3CN(CC5CC6(CCN(c7ncc([C@@H]8c9ccc(O)cc9CC[C@@H]8c8ccccc8)cn7)CC6)C5)CCN43)C2=O)C(=O)N1` (single isomer, unassigned) [Compound A140]: the Dmax at ER in MCF-7 cells (setting [1]) and at ER in T47D cells (setting [2]) was > 75% each time. The DC50 on ER in MCF-7 cells (16 hrs treatment) is < 1 nM; at ER in T47D cells (16 hrs treatment) it was 1 to 10 nM.
With `O=C1CC[C@H](N2Cc3cc4c(cc3C2=O)OCC42CCN(C[C@@H]3COC4(CCN(c5ccc([C@@H]6c7ccc(O)cc7CC[C@@H]6c6ccccc6)cc5)CC4)C3)CC2)C(=O)N1` [Compound A26, (3S)-3-(1′-((8-(4-((1R,2S)-6-hydroxy-2-phenyl-1,2,3,4-tetrahydronaphthalen-1-yl)-phenyl)-1-oxa-8-azaspiro[4.5]decan-3-yl)methyl)-7-oxo-5,7-dihydro-2H,6H-spiro[furo[2,3-f]isoindole-3,4′-piperidin]-6-yl)piperidine-2,6-dione], the DC50 on ER in MCF-7 cells (16 hrs treatment) and on ER in T47D cells (16 hrs treatment) was 10 to 100 nM throughout. Further, the “MCF7 Dmax” value at ER in MCF-7 cells (MCF-7, maximal ER degradation, 16 hrs treatment) was “C (“C”: 25-50%)”. On ER in T47D cells (maximal ER degradation, 16 hrs treatment), the “T47D Dmax” value is given as “C (“C”: 25-50%)”.
For `O=C1CC[C@H](N2Cc3c(ccc4c3OC[C@H]3CN(CC5CCC6(CC5)CN(c5ccc([C@@H]7c8ccc(O)cc8CC[C@@H]7c7ccccc7)cn5)C6)CCN43)C2=O)C(=O)N1` (single isomer, unassigned) [Compound A123, (S)-3-((R)-7-((2-(5-((1S,2S)-6-hydroxy-2-phenyl-1,2,3,4-tetrahydronaphthalen-1-yl)pyridin-2-yl)-2-azaspiro[3.5]nonan-7-yl)methyl)-1-oxo-1,3,5,5a,6,7,8,9-octahydro-2H-pyrazino[1′,2′: 4,5][1,4]oxazino[2,3-e]isoindol-2-yl)piperidine-2,6-dione], the DC50 at ER in MCF-7 cells (16 hrs treatment) and on ER in T47D cells (16 hrs treatment) was < 1 nM each time.
On to `O=C1CC[C@H](N2Cc3c(ccc4c3OCC43CCN(CCCOC4CN(c5ccc([C@@H]6c7ccc(O)cc7CC[C@@H]6c6ccccc6)cc5)C4)CC3)C2=O)C(=O)N1` [Compound A183, (S)-3-(1′-(3-((1-(4-((1R,2S)-6-hydroxy-2-phenyl-1,2,3,4-tetra-hydronaphthalen-1-yl)phenyl)-azetidin-3-yl)oxy)propyl)-6-oxo-6,8-dihydro-2H,7H-spiro [furo[2,3-e]isoindole-3,4′-piperidin]-7-yl)piperidine-2,6-dione], for which the Dmax at ER in MCF-7 cells (setting [4]) is 50 to 75%. Further, at ER in MCF-7 cells (16 hrs treatment), the DC50 was < 1 nM.
For `O=C1CC[C@H](N2Cc3c(ccc4c3OC[C@H]3CN(CC5COC6(CCN(c7ccc([C@H]8c9ccc(O)cc9CC[C@H]8c8ccccc8)cn7)CC6)C5)CCN43)C2=O)C(=O)N1` (single isomer, unassigned) [Compound A137], at ER in MCF-7 cells (setting [1]), the Dmax was < 25%. Besides, on ER in MCF-7 cells (16 hrs treatment), the DC50 lay in the range of 1 to 10 nM.
On to `O=C1CC[C@H](N2Cc3cc4c(cc3C2=O)OCC42CCN(CC3CCC4(CC3)CN(c3ccc([C@@H]5c6ccc(O)cc6CC[C@@H]5c5ccccc5)cn3)C4)CC2)C(=O)N1` [Compound A128, (S)-3-(1′-((2-(5-((1S,2S)-6-hydroxy-2-phenyl-1,2,3,4-tetrahydronaphthalen-1-yl)pyridin-2-yl)-2-azaspiro[3.5]nonan-7-yl)methyl)-7-oxo-5,7-dihydro-2H,6H-spiro[furo[2,3-f]isoindole-3,4′-piperidin]-6-yl)piperidine-2,6-dione], for which, at ER in MCF-7 cells (setting [4]), the Dmax was in the range of 50 to 75%. For the same compound, the DC50 at ER in MCF-7 cells (16 hrs treatment) fell in the range of 1 to 10 nM.
For `COc1cc(N2CCC3(CC2)CC(CN2CCC4(CC2)COc2cc5c(cc24)CN([C@H]2CCC(=O)NC2=O)C5=O)C3)ccc1[C@@H]1c2ccc(O)cc2CC[C@@H]1c1ccccc1` [Compound A162, (S)-3-(1′-((7-(4-((1S,2S)-6-hydroxy-2-phenyl-1,2,3,4-tetrahydronaphthalen-1-yl)-3-methoxyphenyl)-7-azaspiro [3.5]nonan-2-yl)methyl)-7-oxo-5,7-dihydro-2H,6H-spiro[furo [2,3-f]isoindole-3,4′-piperidin]-6-yl)piperidine-2,6-dione], the Dmax at ER in MCF-7 cells (setting [4]) is 25 to 50%. Besides, on ER in MCF-7 cells (16 hrs treatment), the DC50 is < 1 nM.
